What was measured:
[1] = tested on: CCl4-induced liver fibrosis in C57BL/6J mice; experiment: CCl4-induced liver fibrosis model; format: in vivo, mouse; settings: 45 mg/kg/dose PO QD, day 28, vs CCl4 + captisol; P < 0.0001 and P = 0.004
Method: A preclinical mouse model for CCl4-induced liver fibrosis was performed at the Department of Metabolic Health Research, The Netherlands Organisation for Applied Scientific Research (TNO) (Leiden, The Netherlands). Fifty-two male C57BL/6J mice were matched on body weight prior to the study and divided into five groups (experimental study design, Supplementary Figure S1a). Starting at day 0, 10–12-week-old mice were intraperitoneally (i.p.) injected (three times a week) with mineral oil (group 1) or CCl4 (15% v/v in mineral oil, group 2–5) for a total of 28 days. At day 0, mice received subcutaneous treatment with compound 18a (15 mg/kg/dose, twice daily (BID), group 3), or corresponding vehicle control (23% HPBCD, twice daily (BID), groups 1 and 2)], or received daily gavage with either an ALK5/ALK4 kinase inhibitor [SM 16 (45 mg/kg/dose, PO, QD, group 5) or its corresponding vehicle control (β-cyclodextrin sulfobutyl ether sodium salt or captisol, PO, QD, group 4)]. Plasma samples were collected by a tail vein bleed at day 7. At day 28, mice were sacrificed using CO2 and additional plasma samples and liver lobes were collected. As a primary endpoint collagen surface area was determined on cross-sections of the lateral left lobe by picro sirius red (PSR) staining. As a secondary endpoint collagen content (hydroxyproline) of the left median lobe was analyzed using a chromogenic assay according to the manufacturer’s instructions (QuickZyme Biosciences, Leiden, The Netherlands).

[2] = tested on: mouse CXCL12 plasma levels; experiment: Mouse CXCL12 plasma determination (Bio-Plex); format: in vivo; settings: liver fibrosis model, day 28, 45 mg/kg/dose PO QD
Method: CXCL12 plasma levels were determined using Bio-Plex Pro Mouse Chemokine SDF-1a/CXCL12 (Bio-Rad) according to the manufacturer’s protocol. Prior to the assay mouse plasma samples were centrifuged for 15 min at 1000×g at 4 °C to remove any particulates. A four-fold dilution series of mouse CXCL12, blank samples and 1:5 diluted plasma samples were prepared. A 1:1 mixture of magnetic beads (50 µL/well) and sample (50 µL/well) was added to the 96-well assay plate, which was then sealed and incubated (30 min at RT) on a plate shaker at 850 rpm protected from light. After washing three times with wash buffer 25 µL/well detection antibody was added and the plate was again incubated as described above. The plate was again washed three times (100 µL/well wash buffer) followed by the addition of streptavidin-PE (50 µL/well). The plate was sealed and incubated (10 min at RT) at 850 rpm protected from light. Finally, the plate was again washed three times and the magnetic beads were resuspended in fresh assay buffer (152 µL/well). The plate was sealed and shaken for an additional 30 s before being analyzed with the Bioplex 200 System. Data were analyzed with the Bio-Plex Manager Software.

Structure (SMILES): Cc1cccc(-c2[nH]c(C34CCC(C(N)=O)(CC3)CC4)nc2-c2ccc3c(c2)OCO3)n1 [SM 16, reference compound]
- liver fibrosis: PSR-positive area and hydroxyproline content [1]: significantly attenuated liver fibrosis
- plasma CXCL12 levels [2]: no further increase of plasma CXCL12 was observed
